The text below walks through data of PubChem BioAssay (NCI).

Each structure is given as a SMILES string.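 Five concentrations, 48 hours, 96-well plates. At the GI50, growth is halved. At the TGI there is no net growth.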

Some test systems named below: SF-295 CNS; SNB-75 CNS; U251 CNS; MALME-3M melanoma; HOP-92 NSCLC; SN12C renal; 786-0 renal; OVCAR-5 ovarian; HS 578T breast; SK-OV-3 ovarian.
Holding throughout (assay): DTP human tumour cell line panel, 48 h

Regarding `CCCCCCCCCCCCNC(=O)[C@H]1CSC(c2ccc(OC)c(F)c2)N1` (some centres undefined), the GI50 is 1.72 µM in the assay on SF-295 CNS; 0.468 µM in the assay on SNB-75 CNS; 1.89 µM in the assay on U251 CNS; 1.78 µM in the assay on MALME-3M melanoma; 1.69 µM with HOP-92 NSCLC; 0.841 µM in the assay on SN12C renal. The GI50 is 1.63 µM with 786-0 renal, 1.4 µM with OVCAR-5 ovarian, 0.241 µM with HS 578T breast and 1.96 µM in the assay on SK-OV-3 ovarian. Also, the TGI came to 3.25 µM in the assay with SF-295 CNS; 1.01 µM in the assay on SNB-75 CNS; 3.66 µM in the assay with U251 CNS; 3.24 µM with MALME-3M melanoma; 3.24 µM in the assay with HOP-92 NSCLC; 2.14 µM in the assay on SN12C renal. Also, the TGI with 786-0 renal was 3.08 µM; in the assay on OVCAR-5 ovarian, 2.72 µM; with HS 578T breast it was 0.577 µM; in the assay with SK-OV-3 ovarian, 3.43 µM.

With `OCCCCC#Cc1ccccc1C#Cc1cnccn1`, the GI50 was 28.1 µM with SF-295 CNS; 17.3 µM in the assay on SNB-75 CNS; 37.8 µM in the assay with U251 CNS; 47.9 µM in the assay with MALME-3M melanoma; 19.5 µM in the assay on HOP-92 NSCLC; 47.3 µM in the assay with SN12C renal. Besides, the GI50 is 34.7 µM with 786-0 renal, 47.7 µM in the assay with OVCAR-5 ovarian, 24.9 µM with HS 578T breast and 46.3 µM in the assay on SK-OV-3 ovarian. The TGI with SF-295 CNS is 91.6 µM; with SNB-75 CNS it was 53.7 µM; in the assay with U251 CNS, above 100 µM; in the assay with MALME-3M melanoma it was above 100 µM; in the assay with HOP-92 NSCLC it was 88.4 µM; with SN12C renal, above 100 µM. The TGI in the assay with 786-0 renal was above 100 µM; with OVCAR-5 ovarian, above 100 µM; in the assay on HS 578T breast, 85.1 µM; with SK-OV-3 ovarian, above 100 µM.

Take `O=[N+]([O-])c1cccc(-c2ncc(-c3ccc(Cl)cc3Cl)[nH]2)c1`: the GI50 with SF-295 CNS was 2.14 µM; with SNB-75 CNS, 8 µM; in the assay on U251 CNS, 2.67 µM; in the assay on MALME-3M melanoma, 3.69 µM; with SN12C renal it was 6.01 µM; in the assay on 786-0 renal, 5.16 µM. In addition, the GI50 with OVCAR-5 ovarian was 8.07 µM; with HS 578T breast, 3.89 µM; with SK-OV-3 ovarian it was 22.7 µM. Besides, the TGI in the assay on SF-295 CNS is 5.28 µM; in the assay with SNB-75 CNS, 36.9 µM; with U251 CNS, 6.96 µM; in the assay with MALME-3M melanoma it was 8.84 µM; with HOP-92 NSCLC it was 35.4 µM; in the assay on SN12C renal, 12.6 µM. For the same compound, the TGI with 786-0 renal is 11 µM; in the assay on OVCAR-5 ovarian, 23.1 µM; with HS 578T breast, above 49.5 µM; in the assay on SK-OV-3 ovarian it was above 70 µM.

For the compound `COc1cc(/C=C\c2cccnc2Nc2ccccc2)cc(OC)c1OC`, the GI50 was 4.92 µM in the assay on SF-295 CNS; 4.12 µM in the assay on SNB-75 CNS; 4.1 µM with U251 CNS; 15.3 µM with MALME-3M melanoma; 0.947 µM with HOP-92 NSCLC; 5.1 µM with SN12C renal. The GI50 was 5.98 µM in the assay on 786-0 renal, 16.3 µM with OVCAR-5 ovarian, 13.2 µM with HS 578T breast and 11.1 µM with SK-OV-3 ovarian. In addition, the concentration for total growth inhibition (TGI) in the assay on SF-295 CNS is 35.9 µM; in the assay with SNB-75 CNS, 57.5 µM; in the assay with U251 CNS it was above 100 µM; with MALME-3M melanoma it was 87.4 µM; in the assay on HOP-92 NSCLC, 9.17 µM; in the assay with SN12C renal it was above 100 µM. Also, the TGI in the assay with 786-0 renal was 44.1 µM; in the assay on OVCAR-5 ovarian, above 100 µM; with HS 578T breast, above 100 µM; in the assay on SK-OV-3 ovarian, above 100 µM.

As to `Cc1cc2c(cc1Cl)SC1=NN(C)C(c3ccccc3O)N1S2(=O)=O` (centres undefined), the GI50 in the assay with SF-295 CNS was 43.6 µM; with SNB-75 CNS it was above 100 µM; in the assay on U251 CNS, 47.7 µM; in the assay with MALME-3M melanoma, above 100 µM; in the assay with HOP-92 NSCLC, 37.6 µM; with SN12C renal, 58.7 µM. In addition, the GI50 with 786-0 renal is above 100 µM; with OVCAR-5 ovarian, 60 µM; with HS 578T breast, above 100 µM; in the assay on SK-OV-3 ovarian it was above 100 µM. In addition, the TGI in the assay with SF-295 CNS, in the assay with SNB-75 CNS, in the assay on U251 CNS, with MALME-3M melanoma, with HOP-92 NSCLC and in the assay with SN12C renal was above 100 µM in each case. Further, the total growth inhibition concentration (TGI) in the assay on 786-0 renal, in the assay on OVCAR-5 ovarian, in the assay with HS 578T breast and with SK-OV-3 ovarian was above 100 µM in each case.

With `CCN(CC)CCOc1ccc(C2=C(c3ccccc3)CCc3cc(OC)ccc32)cc1`, the GI50 was 1.59 µM with SF-295 CNS; 1.4 µM in the assay on SNB-75 CNS; 2.29 µM in the assay with U251 CNS; 1.69 µM in the assay on MALME-3M melanoma; 3.64 µM in the assay on HOP-92 NSCLC; 5.48 µM with SN12C renal. In addition, the GI50 with 786-0 renal is 1.51 µM; in the assay on OVCAR-5 ovarian, 2.31 µM; in the assay with HS 578T breast, 3.72 µM; with SK-OV-3 ovarian, 3.22 µM. The concentration for total growth inhibition (TGI) in the assay on SF-295 CNS was found to be 3.27 µM; in the assay with SNB-75 CNS, 4.62 µM; in the assay on U251 CNS it was 7.07 µM; in the assay with MALME-3M melanoma, 3.41 µM; with HOP-92 NSCLC, 10.9 µM; in the assay on SN12C renal, 20 µM. For the same compound, the TGI was 2.88 µM in the assay with 786-0 renal, 5.52 µM in the assay on OVCAR-5 ovarian, 10.9 µM in the assay on HS 578T breast and 13.6 µM in the assay with SK-OV-3 ovarian.
